Values of other authors as cited in article PMC7395068, “The evolution of strategies to minimise the risk of human drug-induced liver injury (DILI) in drug discovery and development” (Archives of Toxicology, 2020).
Where two headings read alike, the source gives them in different places. *1 amine or outer side, *2 acyl side, *3 side chain or, on linkers, in order; H or OH if unused. Where a SMILES comes first, the peptide text is derived from it. Bridges are numbered along the chain shown (N, C = ends). [ ]: non-standard residue; d: D form. The star is where a group is joined. hTyr(3S-OH,4S-OH,3'-OSO3H) = N[C@H](C(=O)O)[C@H](O)[C@@H](O)c1ccc(O)c(OS(=O)(=O)O)c1; Orn(4R-OH,5R-OH) = O=C([C@H](C[C@@H](O)[C@@H](O)N[*:3])N[*:1])[*:2]; Pro(3S-OH,4S-Me) = C[C@H]1CN[C@H](C(=O)O)[C@H]1O; X1 = CCCCCOc1ccc(-c2cc(-c3ccc(C(=O)*)cc3)no2)cc1; Gln(3R-OH) = NC(=O)C[C@@H](O)[C@H](N)C(=O)O; Hyp = O=C(O)[C@@H]1C[C@@H](O)CN1

Conditions: cited from earlier work
[1] = binary in vivo human DILI call, ref Chen 2016
[2] = human DILI, LTKB DILIrank category, ref Chen 2016
[3] = binary in vivo DILI call given beside the severity category, ref Chen 2016
[4] = human DILI concern category (LTKB DILIrank), ref Chen 2016

Compound	DILI +VE (5-8), DILI -VE (-4) [1]	DILI severity category [2]	DILI +VE (5-8), DILI -VE (-4) [3]	DILI severity category [4]	further results
CCc1c2c(nc3ccc(OC(=O)N4CCC(N5CCCCC5)CC4)cc13)-c1cc3c(c(=O)n1C2)COC(=O)[C@]3(O)CC [irinotecan]	–	–	–	–	DILI +VE (5-8), DILI -VE (-4) (in vivo): +VE; DILI severity category (in vivo): vLess-DILI-Concern
CC(C)Nc1ncccn1 [isaxonine]	+VE	vMost-DILI-Concern	–	–	–
O=[N+]([O-])O[C@@H]1CO[C@H]2[C@@H]1OC[C@@H]2O [isorbide mononitrate]	–	–	–	–	DILI +VE (5-8), DILI -VE (-4) (in vivo): -VE; DILI severity category (in vivo): Ambiguous DILI-concern
CC[C@H](C)[C@H]1O[C@]2(CC[C@@H]1C)C[C@@H]1C[C@@H](C/C=C(\C)[C@@H](O[C@H]3C[C@H](OC)[C@@H](O[C@H]4C[C@H](OC)[C@@H](O)[C@H](C)O4)[C@H](C)O3)[C@@H](C)/C=C/C=C3\CO[C@@H]4[C@H](O)C(C)=C[C@@H](C(=O)O1)[C@]34O)O2 [ivermectin]	+VE	vLess-DILI-Concern	–	–	–
C/C(=C\c1csc(C)n1)[C@@H]1C[C@@H]2O[C@]2(C)CCC[C@H](C)[C@H](O)[C@@H](C)C(=O)C(C)(C)[C@@H](O)CC(=O)N1 [ixabepilone]	-VE	Ambiguous DILI-concern	–	–	–
CNC1(c2ccccc2Cl)CCCCC1=O (stereo not shown) [ketamine]	+VE	vLess-DILI-Concern	–	–	–
C[N+](C)(C)C[C@H](O)CC(=O)[O-] [l-carnitine]	-VE	vNo-DILI-Concern	–	–	–
N[C@@H](CS)C(=O)O [l-cysteine]	–	–	–	–	DILI +VE (5-8), DILI -VE (-4) (in vivo): -VE; DILI severity category (in vivo): Ambiguous DILI-concern
CSCC[C@H](N)C(=O)O [l-methionine]	-VE	vNo-DILI-Concern	–	–	–
CC(C)[C@@H]1NC(=O)[C@H](CCCCN)NC(=O)[C@@H](Cc2c[nH]c3ccccc23)NC(=O)[C@H](Cc2ccc(O)cc2)NC(=O)[C@@H](NC(=O)[C@H](N)Cc2ccc3ccccc3c2)CSSC[C@@H](C(=O)N[C@H](C(N)=O)[C@@H](C)O)NC1=O [lanreotide acetate]	-VE	Ambiguous DILI-concern	–	–	–
Cc1c(OCC(F)(F)F)ccnc1C[S+]([O-])c1nc2ccccc2[nH]1 (stereo not shown) [lansoprazole]	+VE	vLess-DILI-Concern	–	–	–
O=C([O-])[O-].O=C([O-])[O-].O=C([O-])[O-].[La+3].[La+3] [lanthanum carbonate]	–	–	–	–	DILI +VE (5-8), DILI -VE (-4) (in vivo): -VE; DILI severity category (in vivo): vNo-DILI-Concern
Nc1cccc2c1CN(C1CCC(=O)NC1=O)C2=O (stereo not shown) [lenalidomide]	+VE	vLess-DILI-Concern	–	–	–
N#Cc1ccc(C(c2ccc(C#N)cc2)n2cncn2)cc1 [letrozole]	+VE	vLess-DILI-Concern	–	–	–
Nc1nc2c(c(=O)[nH]1)N(C=O)C(CNc1ccc(C(=O)N[C@@H](CCC(=O)O)C(=O)O)cc1)CN2 (stereo partly shown) [leucovorin]	-VE	vNo-DILI-Concern	–	–	–
CN1c2c(nc(N)[nH]c2=O)NC[C@@H]1CNc1ccc(C(=O)N[C@@H](CCC(=O)O)C(=O)O)cc1 [levomefolate calcium]	–	–	–	–	DILI +VE (5-8), DILI -VE (-4) (in vivo): -VE; DILI severity category (in vivo): vNo-DILI-Concern
C#C[C@]1(O)CC[C@H]2[C@@H]3CCC4=CC(=O)CC[C@@H]4[C@H]3CC[C@@]21CC [levonorgestrel]	–	–	–	–	DILI +VE (5-8), DILI -VE (-4) (in vivo): -VE; DILI severity category (in vivo): vNo-DILI-Concern
CN1CC[C@]23CCCC[C@H]2[C@H]1Cc1ccc(O)cc13 [levorphanol]	-VE	vNo-DILI-Concern	–	–	–
N[C@@H](Cc1cc(I)c(Oc2cc(I)c(O)c(I)c2)c(I)c1)C(=O)O [levothyroxine]	+VE	vLess-DILI-Concern	–	–	–
CCC[C@@H]1C[C@@H](C(=O)N[C@@H]([C@H]2O[C@H](SC)[C@H](O)[C@@H](O)[C@H]2O)[C@@H](C)O)N(C)C1 [lincomycin]	-VE	Ambiguous DILI-concern	–	–	–
CC(=O)NC[C@H]1CN(c2ccc(N3CCOCC3)c(F)c2)C(=O)O1 [linezolid]	–	–	–	–	DILI +VE (5-8), DILI -VE (-4) (in vivo): +VE; DILI severity category (in vivo): vLess-DILI-Concern
C[C@@H](Cc1ccccc1)NC(=O)[C@@H](N)CCCCN [lisdexamfetamine]	-VE	Ambiguous DILI-concern	–	–	–
O=NN(CCCl)C(=O)NC1CCCCC1 [lomustine]	–	–	–	–	DILI +VE (5-8), DILI -VE (-4) (in vivo): +VE; DILI severity category (in vivo): vLess-DILI-Concern
N[C@@H](C(=O)N[C@@H]1C(=O)N2C(C(=O)O)=C(Cl)CC[C@H]12)c1ccccc1 [loracarbef]	–	–	–	–	DILI +VE (5-8), DILI -VE (-4) (in vivo): +VE; DILI severity category (in vivo): vLess-DILI-Concern
O=C1Nc2ccc(Cl)cc2C(c2ccccc2Cl)=NC1O (stereo not shown) [lorazepam]	-VE	Ambiguous DILI-concern	–	–	–
CN1CCN(C2=Nc3ccccc3Oc3ccc(Cl)cc32)CC1 [loxapine]	–	–	–	–	DILI +VE (5-8), DILI -VE (-4) (in vivo): -VE; DILI severity category (in vivo): Ambiguous DILI-concern
OC[C@@H](O)[C@@H](O)[C@H](O)[C@H](O)CO [mannitol]	-VE	vNo-DILI-Concern	–	–	–

Compound	DILI +VE (5-8), DILI -VE (-4) [1]	DILI severity category [2]	DILI +VE (5-8), DILI -VE (-4) [3]	DILI severity category [4]	further results
CCCCCc1cc(O)c2c(c1)OC(C)(C)[C@@H]1CCC(C)=C[C@@H]21 [marinol]	–	–	–	–	DILI +VE (5-8), DILI -VE (-4) (in vivo): -VE; DILI severity category (in vivo): Ambiguous DILI-concern
Cc1ccc(Cl)c(Nc2ccccc2C(=O)O)c1Cl [meclofenamic acid]	-VE	Ambiguous DILI-concern	–	–	–
N[C@@H](Cc1ccc(N(CCCl)CCCl)cc1)C(=O)O [melphalan]	+VE	vLess-DILI-Concern	–	–	–
CN1CCCC(CN2c3ccccc3Sc3ccccc32)C1 (stereo not shown) [mepazine]	+VE	vMost-DILI-Concern	–	–	–
C[N+]1(C)CCCC(OC(=O)C(O)(c2ccccc2)c2ccccc2)C1 (stereo not shown) [mepenzolate]	-VE	vNo-DILI-Concern	–	–	–
CCCC(C)(COC(N)=O)COC(N)=O [meprobamate]	-VE	vNo-DILI-Concern	–	–	–
O=S(=O)(O)CCS [mesna]	–	–	-VE	Ambiguous DILI-concern	–
CN1CCCCC1CCN1c2ccccc2Sc2ccc([S+](C)[O-])cc21 (stereo not shown) [mesoridazine]	–	–	-VE	Ambiguous DILI-concern	–
Cc1cc(C)cc(OCC2CNC(=O)O2)c1 (stereo not shown) [metaxalone]	–	–	+VE	vLess-DILI-Concern	–
CCC(=O)C(CC(C)N(C)C)(c1ccccc1)c1ccccc1 (stereo not shown) [methadone]	–	–	–	–	DILI +VE (5-8), DILI -VE (-4) (in vivo): -VE; DILI severity category (in vivo): Ambiguous DILI-concern
CC(=O)/N=c1/sc(S(N)(=O)=O)nn1C [methazolamide]	–	–	+VE	vLess-DILI-Concern	–
C1N2CN3CN1CN(C2)C3 [methenamine hippurate]	–	–	-VE	Ambiguous DILI-concern	–
C=CCC1(C(C)C#CCC)C(=O)N=C(O)N(C)C1=O (stereo not shown) [methohexital]	–	–	-VE	Ambiguous DILI-concern	–
CN1C(=O)CC(C)(c2ccccc2)C1=O (stereo not shown) [methsuximide]	–	–	-VE	vNo-DILI-Concern	–
C[N@+]1(CC2CC2)CC[C@]23c4c5ccc(O)c4O[C@H]2C(=O)CC[C@@]3(O)[C@H]1C5 [methylnaltrexone bromide]	–	–	-VE	vNo-DILI-Concern	–
COC(=O)C(c1ccccc1)C1CCCCN1 (stereo not shown) [methylphenidate]	–	–	–	–	DILI +VE (5-8), DILI -VE (-4) (in vivo): +VE; DILI severity category (in vivo): vLess-DILI-Concern
C[C@H]1C[C@@H]2[C@H]([C@@H](O)C[C@@]3(C)[C@H]2CC[C@]3(O)C(=O)CO)[C@@]2(C)C=CC(=O)C=C12 [methylprednisolone]	–	–	+VE	vLess-DILI-Concern	–
C[C@]12CCC(=O)C=C1CC[C@@H]1[C@@H]2CC[C@@]2(C)[C@H]1CC[C@]2(C)O [methyltestosterone]	–	–	+VE	vLess-DILI-Concern	–
CC[C@@H](CO)NC(=O)[C@@H]1C=C2c3cccc4c3c(cn4C)C[C@H]2N(C)C1 [methysergide]	–	–	-VE	vNo-DILI-Concern	–
Cc1ccccc1N1C(=O)c2cc(S(N)(=O)=O)c(Cl)cc2NC1C (stereo not shown) [metolazone]	–	–	-VE	Ambiguous DILI-concern	–
CC(C)(C(=O)c1cccnc1)c1cccnc1 [metyrapone]	–	–	-VE	vNo-DILI-Concern	–
CCCCCOc1ccc(-c2cc(-c3ccc(C(=O)N[C@H]4C[C@@H](O)[C@@H](O)NC(=O)[C@@H]5[C@@H](O)[C@@H](C)CN5C(=O)[C@H]([C@H](O)CC(N)=O)NC(=O)[C@H]([C@H](O)[C@@H](O)c5ccc(O)c(OS(=O)(=O)O)c5)NC(=O)[C@@H]5C[C@@H](O)CN5C(=O)[C@H]([C@@H](C)O)NC4=O)cc3)no2)cc1 [micafungin] (X1-[Orn(4R-OH,5R-OH)]T[Hyp][hTyr(3S-OH,4S-OH,3'-OSO3H)][Gln(3R-OH)][Pro(3S-OH,4S-Me)]; lactam 1-C)	–	–	+VE	vMost-DILI-Concern	–
OCCN1C[C@H](O)[C@@H](O)[C@H](O)[C@H]1CO [miglitol]	–	–	-VE	vNo-DILI-Concern	–
CCCCN1C[C@H](O)[C@@H](O)[C@H](O)[C@H]1CO [miglustat]	–	–	-VE	vNo-DILI-Concern	–
Clc1ccc(C(c2ccccc2Cl)C(Cl)Cl)cc1 (stereo not shown) [mitotane]	–	–	-VE	vNo-DILI-Concern	–
COc1cc2c(cc1OC)[C@@H](Cc1cc(OC)c(OC)c(OC)c1)[N+](C)(CCCOC(=O)CC/C=C/CCC(=O)OCCC[N+]1(C)CCc3cc(OC)c(OC)cc3[C@H]1Cc1cc(OC)c(OC)c(OC)c1)CC2 (stereo partly shown) [mivacurium]	–	–	-VE	vNo-DILI-Concern	–
